Laboratory results reported in US11548900B2, “Oxazino-quinazoline and oxazino-quinoline type compound, preparation method and uses thereof” (BEIJING SCITECH-MQ PHARMACEUTICALS LIMITED, priority 2018, dated 2023).

What was measured:
HER2 kinase = HER2 kinase (Homo sapiens (Human), UniProt P04626); assay: Inhibition of HER2 kinase activity (ULight-labeled PolyGT substrate); assay type: biochemical; settings: HER2 kinase 10 nM, ATP 10 μM, 2 hours
Method in brief: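 Eleven-point 3-fold dilutions (0.042 nM–2.5 μM final, 1% DMSO) tested in duplicate against 10 nM HER2 with 100 nM ULight-labelled PolyGT and 10 μM ATP. Reaction ran 2 h at RT after 5 min pre-incubation; 665/615 nm TR-FRET ratio used to derive inhibition and IC50.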

HCC827 cells = assay: Inhibition of cell proliferation, HCC827 (CCK-8, 72 h); assay type: cell-based; settings: Homo sapiens, 72 h incubation
Procedure: (§1) The assay for the inhibition of cell proliferation by small molecular compounds was carried out using the method as follows:
(§2) 1. 600 μL pancreatin was added to a T75 cell culture flask, which was digested in a 37° C. incubator for about 1 min before 5 mL of DMEM complete culture solution was added, blew evenly, transferred to a 15 mL centrifuge tube, and centrifuged at 1000 rpm for 4 min;
(§3) 2. The supernatant was removed and 5 mL DMEM complete culture solution was added, blew evenly, and 10 μL cell suspension was taken and mixed with 10 μL 0.4% Trypan Blue, and counted using a cell counter;
(§4) 3. BT474 and HCC827 cell lines were seeded in 96-well plates at a cell density of 10,000 and 3000 cells/well/80 μL, respectively, and cultured overnight. Only sterile water was added to the 36 wells on the periphery of the 96-well plate without adding cells, and only the 60 wells in the center of the 96-well plate were used for cell assays and controls;
(§5) 4. Dilution of compounds: the compounds were diluted with a 3-fold dilution to make 10 concentrations in total with an initial concentration of 10 mM;
(§6) 5. 20 μL of different compounds with different concentrations were added to each well, and 20 μL of complete culture solution was added to the remaining wells. The final concentration of DMSO in each well is 0.25%;
(§7) 6. After 72 h of incubation, 10 μL CCK-8 reagent was added to each well, and incubated at 37° C. for 1-2 h; and the OD value was read at 450 nm;
(§8) 7. Cell survival rate (%)=[(As−Ab)/(Ac−Ab)]*100%
(§9) As: Assay well (medium containing cell, CCK-8, compound)
(§10) Ac: Control well (medium containing cell, CCK-8)
(§11) Ab: Blank well (CCK-8, medium without cell and compound)
(§12) 8. The value was imported into Graphpad Prism5 software for the calculation of IC50s (compound concentration at which 50% maximum survival rate is observed).

BT474 cells = assay: Inhibition of cell proliferation, BT474 (CCK-8, 72 h); assay type: cell-based; settings: Homo sapiens, BT-474, 72 h incubation
Procedure: as §1, §2, §3, §4, §5, §6, §7, §8, §9, §10, §11, §12

EGFR kinase = EGFR kinase (Homo sapiens (Human), UniProt P00533); assay: Inhibition of EGFR kinase activity (ULight-labeled JAK-1 (Tyr1023) peptide substrate); assay type: biochemical; settings: EGFR kinase 0.35 nM, ATP 150 μM, 2 hours
Procedure: The assay for the inhibition of EGFR and HER2 kinase activity by small molecular compounds was carried out using the method as follows:
1) Dilution of the compounds
In a 96-well plate a, the compounds were diluted with DMSO using a 3-fold gradient dilution to form 11 concentrations, the 12th concentration is pure DMSO (as a positive control); and in a new 96-well plate b the above solutions were diluted 25 times with ultrapure water (DMSO concentration is 4%).
2) Transferring the compounds to 384-well plate
The compound solutions diluted with ultrapure water in the 96-well plate b above was transferred to the corresponding wells of a 384-well plate in duplicate.
3) Addition of 4×kinase solution: 2.5 μl of the above 4× kinase solution was taken using multichannel pipette and added to the corresponding reaction wells of the 384-well plate, mixed well and pre-reacted at room temperature for 5 minutes.
4) Addition of 2×substrate/ATP mixed solution: 5 μl of the above 2×substrate/ATP mixed solution was taken using multichannel pipette and added to the corresponding reaction wells of the 384-well plate.
5) Negative control: negative control wells were set in the 384-well plate, and 2.5 μl 4×substrate, 2.5 μl 4×enzyme solution, 2.5 μl 1×Kinase Assay Buffer and 2.5 μl ultrapure water containing 4% DMSO were added to each well.
6) Mixed by centrifugation and kept at room temperature for 2 hours in the dark.
7) Termination of the enzymatic reaction:
5 μl of the above 4× stop solution was pipetted to the corresponding wells of the 384-well plate, centrifuged and mixed, and reacted at room temperature for 5 minutes.
5 μl of the above 4× detection solution was pipetted into the corresponding wells of the 384-well plate, centrifuged and mixed, and reacted at room temperature for 1 hour.
9) The 384-well plate was placed into a microplate reader and the signal was detected using the corresponding program.
10) IC50 analysis: Well reading value=10000*EU665 value/EU615 value Inhibition rate=(reading value of positive control well−reading value of experimental well)/(reading value of positive control well−reading value of negative control well)*100% Corresponding IC50s can be calculated by entering the drug concentrations and the corresponding inhibition rates into GraphPad Prism 5.
Conditions of experiment for screening EGFR kinase inhibitory molecules:
The final concentration of EGFR kinase in the reaction system is 0.35 nM, and the final concentration of ATP is 150 μM, the final concentration of substrate ULight™-labeled JAK-1 (Tyr1023) Peptide is 100 nM, and the enzymatic reaction time is 2 hours.
The maximum final concentration of the compound in the reaction system is 2.5 μM, 11 concentrations were made with a 3-fold gradient dilution, and the minimal final concentration is 0.042 nM. The final concentration of DMSO is 1%.

Chain of HER2 kinase (P04626 23-1255): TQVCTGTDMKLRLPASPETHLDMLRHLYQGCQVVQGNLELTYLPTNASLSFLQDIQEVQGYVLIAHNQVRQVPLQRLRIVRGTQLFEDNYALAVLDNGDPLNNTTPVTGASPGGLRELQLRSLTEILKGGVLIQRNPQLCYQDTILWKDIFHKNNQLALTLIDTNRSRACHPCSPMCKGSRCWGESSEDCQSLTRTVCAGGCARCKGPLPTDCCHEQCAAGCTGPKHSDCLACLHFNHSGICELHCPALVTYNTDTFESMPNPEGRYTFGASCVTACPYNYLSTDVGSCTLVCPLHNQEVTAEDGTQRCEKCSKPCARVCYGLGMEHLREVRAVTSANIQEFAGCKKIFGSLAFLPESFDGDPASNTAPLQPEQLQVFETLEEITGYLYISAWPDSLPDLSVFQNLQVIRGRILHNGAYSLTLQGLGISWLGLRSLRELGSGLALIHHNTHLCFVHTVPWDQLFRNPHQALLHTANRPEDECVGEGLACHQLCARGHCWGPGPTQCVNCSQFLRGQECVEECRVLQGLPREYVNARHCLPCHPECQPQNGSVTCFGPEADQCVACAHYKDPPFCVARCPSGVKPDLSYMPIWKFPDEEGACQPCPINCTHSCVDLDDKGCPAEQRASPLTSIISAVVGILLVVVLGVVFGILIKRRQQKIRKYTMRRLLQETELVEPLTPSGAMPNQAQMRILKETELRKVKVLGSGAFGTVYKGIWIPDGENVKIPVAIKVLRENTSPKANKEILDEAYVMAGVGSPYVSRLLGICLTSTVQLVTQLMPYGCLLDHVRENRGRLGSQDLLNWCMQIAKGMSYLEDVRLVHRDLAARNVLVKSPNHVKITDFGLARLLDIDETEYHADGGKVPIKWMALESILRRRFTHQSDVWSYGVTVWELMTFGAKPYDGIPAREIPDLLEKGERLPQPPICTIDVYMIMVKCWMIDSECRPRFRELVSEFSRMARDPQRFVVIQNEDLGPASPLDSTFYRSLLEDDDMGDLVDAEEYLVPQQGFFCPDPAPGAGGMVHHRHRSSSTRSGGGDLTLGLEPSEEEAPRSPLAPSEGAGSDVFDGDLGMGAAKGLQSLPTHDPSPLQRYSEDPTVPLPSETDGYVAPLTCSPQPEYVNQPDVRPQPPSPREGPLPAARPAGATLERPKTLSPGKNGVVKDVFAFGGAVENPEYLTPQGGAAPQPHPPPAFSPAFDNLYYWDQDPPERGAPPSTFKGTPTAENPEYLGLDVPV
Chain of EGFR kinase (P00533 25-1210): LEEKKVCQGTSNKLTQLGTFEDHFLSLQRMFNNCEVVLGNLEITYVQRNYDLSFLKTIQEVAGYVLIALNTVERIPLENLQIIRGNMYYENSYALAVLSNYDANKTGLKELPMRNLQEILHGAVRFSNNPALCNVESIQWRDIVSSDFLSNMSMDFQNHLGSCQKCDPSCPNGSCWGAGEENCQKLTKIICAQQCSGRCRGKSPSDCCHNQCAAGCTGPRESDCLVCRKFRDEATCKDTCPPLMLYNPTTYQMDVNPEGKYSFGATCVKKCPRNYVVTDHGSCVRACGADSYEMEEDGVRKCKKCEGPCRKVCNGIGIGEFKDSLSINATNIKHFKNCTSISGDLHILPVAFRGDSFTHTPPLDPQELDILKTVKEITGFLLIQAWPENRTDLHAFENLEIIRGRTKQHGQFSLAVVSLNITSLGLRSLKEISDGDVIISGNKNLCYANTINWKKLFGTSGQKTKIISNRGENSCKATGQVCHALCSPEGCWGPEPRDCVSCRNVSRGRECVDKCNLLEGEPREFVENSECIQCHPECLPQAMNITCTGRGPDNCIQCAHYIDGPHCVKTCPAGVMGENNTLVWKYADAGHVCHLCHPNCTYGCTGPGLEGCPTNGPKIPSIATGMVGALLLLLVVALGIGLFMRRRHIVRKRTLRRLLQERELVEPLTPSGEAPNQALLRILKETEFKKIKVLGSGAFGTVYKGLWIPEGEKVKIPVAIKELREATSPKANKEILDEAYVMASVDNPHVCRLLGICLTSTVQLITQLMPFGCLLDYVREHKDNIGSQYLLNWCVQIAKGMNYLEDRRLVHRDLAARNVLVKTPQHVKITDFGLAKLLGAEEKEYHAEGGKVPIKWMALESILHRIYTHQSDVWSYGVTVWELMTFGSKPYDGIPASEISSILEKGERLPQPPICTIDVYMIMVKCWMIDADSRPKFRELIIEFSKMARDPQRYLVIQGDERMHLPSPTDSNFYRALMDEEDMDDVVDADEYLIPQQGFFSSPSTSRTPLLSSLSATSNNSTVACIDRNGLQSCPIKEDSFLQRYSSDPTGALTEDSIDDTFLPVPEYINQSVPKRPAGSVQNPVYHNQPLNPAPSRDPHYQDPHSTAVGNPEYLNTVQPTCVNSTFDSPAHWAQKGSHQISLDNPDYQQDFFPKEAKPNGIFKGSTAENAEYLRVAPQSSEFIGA

Which IC50 (HER2 kinase) does the source give for `CN(C)C/C=C/C(=O)N1CCOc2c1ccc1ncnc(Nc3ccc(Oc4ccccc4)c(F)c3)c21` [Example 58, (E)-4-(dimethylamino)-1-(10-((3-fluoro-4-phenoxyphenyl)amino)-2,3-dihydro-4H-[1,4]oxazino[2,3-f]quinazolin-4-yl)but-2-en-1-one] here?
The IC50 was ≤ 50 nM.

And the IC50 (HCC827 cells)?
Its IC50 is 50 to 500 nM.

And the IC50 (BT474 cells)?
The IC50 was ≤ 50 nM.

Which results are given for `CN(C)C/C=C/C(=O)N1CCOc2c1ccc1ncnc(Nc3ccc(OCc4ccccc4)cc3)c21` [Example 78, (E)-1-(10-((4-(benzyloxy)phenyl)amino)-2,3-dihydro-4H-[1,4]oxazino[2,3-f]quinazolin-4-yl)-4-(dimethylamino)but-2-en-1-one]?
IC50 (HER2 kinase): ≤ 50 nM; IC50 (HCC827 cells): 500 to 5000 nM; IC50 (BT474 cells): ≤ 50 nM

How did the IC50 (HER2 kinase) turn out when `CN(C)C/C=C/C(=O)N1CCOc2c1ccc1ncnc(Nc3ccc(OCc4ccccc4F)cc3)c21` [Example 79, (E)-4-(dimethylamino)-1-(10-((4-((2-fluorobenzyl)oxy)phenyl)amino)-2,3-dihydro-4H-[1,4]oxazino[2,3-f]quinazolin-4-yl)but-2-en-1-one] was run?
Its IC50 is ≤ 50 nM.

What about the IC50 (HCC827 cells) of the same molecule?
Its IC50 is 500 to 5000 nM.

And the IC50 (BT474 cells)?
Its IC50 is ≤ 50 nM.

`CN(C)C/C=C/C(=O)N1CCOc2c1ccc1ncnc(Nc3ccc(OCc4ccccc4Cl)cc3)c21` [Example 80, (E)-4-(dimethylamino)-1-(10-((4-((2-chlorobenzyl)oxy)phenyl)amino)-2,3-dihydro-4H-[1,4]oxazino[2,3-f]quinazolin-4-yl)but-2-en-1-one] was tested. Which IC50 (HER2 kinase) did it give?
The IC50 was ≤ 50 nM.

And the IC50 (HCC827 cells)?
The IC50 was 500 to 5000 nM.

What about the IC50 (BT474 cells) of the same molecule?
Its IC50 is ≤ 50 nM.

What does the source list for `Cc1ccccc1COc1ccc(Nc2ncnc3ccc4c(c23)OCCN4C(=O)/C=C/CN(C)C)cc1` [Example 81, (E)-4-(dimethylamino)-1-(10-((4-((2-methylbenzyl)oxy)phenyl)amino)-2,3-dihydro-4H-[1,4]oxazino[2,3-f]quinazolin-4-yl)but-2-en-1-one]?
IC50 (HER2 kinase): ≤ 50 nM; IC50 (HCC827 cells): 500 to 5000 nM; IC50 (BT474 cells): ≤ 50 nM

With `COc1ccccc1COc1ccc(Nc2ncnc3ccc4c(c23)OCCN4C(=O)/C=C/CN(C)C)cc1` [Example 82, (E)-4-(dimethylamino)-1-(10-((4-((2-methoxybenzyl)oxy)phenyl)amino)-2,3-dihydro-4H-[1,4]oxazino[2,3-f]quinazolin-4-yl)but-2-en-1-one] as the molecule, how does the IC50 (HER2 kinase) read?
Its IC50 is ≤ 50 nM.

And the IC50 (HCC827 cells)?
Its IC50 is 500 to 5000 nM.

And the IC50 (BT474 cells)?
Its IC50 is ≤ 50 nM.

Which IC50 (HER2 kinase) does the source give for `O=C(/C=C/CNC1CC1)N1CCOc2c1ccc1ncnc(Nc3ccc(OCc4ccccn4)c(Cl)c3)c21` [Example 101, (E)-1-(10-((3-chloro-4-(pyridin-2-ylmethoxy)phenyl)amino)-2,3-dihydro-4H-[1,4]oxazino[2,3-f]quinazolin-4-yl)-4-(cyclopropylamino)but-2-en-1-one] here?
The IC50 was 50 to 500 nM.

What about the IC50 (HCC827 cells) of the same molecule?
Its IC50 is 500 to 5000 nM.

Which IC50 (EGFR kinase) does the source give for `CN(C/C=C/C(=O)N1CCOc2c1ccc1ncnc(Nc3ccc(Oc4ccn5ncnc5c4)c(Cl)c3)c21)C1CCC1` [Example 129, (E)-1-(10-((4-([1,2,4]triazolo[1,5-a]pyridin-7-yloxy)-3-chlorophenyl)amino)-2,3-dihydro-4H-[1,4]oxazino[2,3-f]quinazolin-4-yl)-4-(cyclobutyl(methyl)amino)but-2-en-1-one] here?
The IC50 was 50 to 500 nM.

What about the IC50 (HER2 kinase) of the same molecule?
Its IC50 is ≤ 50 nM.

And the IC50 (BT474 cells)?
The IC50 was ≤ 50 nM.

How did the IC50 (EGFR kinase) turn out when `COCCN(C)C/C=C/C(=O)N1CCOc2c1ccc1ncnc(Nc3ccc(Oc4ccn5ncnc5c4)c(Cl)c3)c21` [Example 130, (E)-1-(10-((4-([1,2,4]triazolo[1,5-a]pyridin-7-yloxy)-3-chlorophenyl)amino)-2,3-dihydro-4H-[1,4]oxazino[2,3-f]quinazolin-4-yl)-4-((2-methoxyethyl)(methyl)amino)but-2-en-1-one] was run?
The IC50 was 50 to 500 nM.

And the IC50 (HER2 kinase)?
The IC50 was ≤ 50 nM.

What about the IC50 (BT474 cells) of the same molecule?
Its IC50 is ≤ 50 nM.

Which results are given for `CCN(CC)C/C=C/C(=O)N1CCOc2c1ccc1ncnc(Nc3ccc(Oc4ccn5ncnc5c4)c(Cl)c3)c21` [Example 131, (E)-1-(10-((4-([1,2,4]triazolo[1,5-a]pyridin-7-yloxy)-3-chlorophenyl)amino)-2,3-dihydro-4H-[1,4]oxazino[2,3-f]quinazolin-4-yl)-4-(diethylamino)but-2-en-1-one]?
IC50 (EGFR kinase): 50 to 500 nM; IC50 (HER2 kinase): ≤ 50 nM; IC50 (BT474 cells): ≤ 50 nM

Which results are given for `Cc1cc(Nc2ncnc3ccc4c(c23)OCCN4C(=O)/C=C/CN2CCN(C)CC2)ccc1Oc1ccn2ncnc2c1` [Example 132, (E)-1-(10-((4-([1,2,4]triazolo[1,5-a]pyridin-7-yloxy)-3-methylphenyl)amino)-2,3-dihydro-4H-[1,4]oxazino[2,3-f]quinazolin-4-yl)-4-(4-methylpiperazin-1-yl)but-2-en-1-one]?
IC50 (EGFR kinase): 50 to 500 nM; IC50 (HER2 kinase): ≤ 50 nM; IC50 (BT474 cells): ≤ 50 nM

With `Cc1cc(Nc2ncnc3ccc4c(c23)OCCN4C(=O)/C=C/CN(C)C(C)C)ccc1Oc1ccn2ncnc2c1` [Example 133, (E)-1-(10-((4-([1,2,4]triazolo[1,5-a]pyridin-7-yloxy)-3-methylphenyl)amino)-2,3-dihydro-4H-[1,4]oxazino[2,3-f]quinazolin-4-yl)-4-(isopropyl(methyl)amino)but-2-en-1-one] as the molecule, how does the IC50 (EGFR kinase) read?
Its IC50 is 500 to 5000 nM.

And the IC50 (HER2 kinase)?
Its IC50 is ≤ 50 nM.

What about the IC50 (BT474 cells) of the same molecule?
Its IC50 is ≤ 50 nM.

`Cc1cc(Nc2ncnc3ccc4c(c23)OCCN4C(=O)/C=C/CN2CCCCC2)ccc1Oc1ccn2ncnc2c1` [Example 134, (E)-1-(10-((4-([1,2,4]triazolo[1,5-a]pyridin-7-yloxy)-3-methylphenyl)amino)-2,3-dihydro-4H-[1,4]oxazino[2,3-f]quinazolin-4-yl)-4-(piperidin-1-yl)but-2-en-1-one] was tested. Which IC50 (EGFR kinase) did it give?
Its IC50 is 50 to 500 nM.

And the IC50 (HER2 kinase)?
The IC50 was ≤ 50 nM.

And the IC50 (BT474 cells)?
Its IC50 is ≤ 50 nM.

What does the source list for `Cc1cc(Nc2ncnc3ccc4c(c23)OCCN4C(=O)/C=C/CN(C)C2CCC2)ccc1Oc1ccn2ncnc2c1` [Example 135, (E)-1-(10-((4-([1,2,4]triazolo[1,5-a]pyridin-7-yloxy)-3-methylphenyl)amino)-2,3-dihydro-4H-[1,4]oxazino[2,3-f]quinazolin-4-yl)-4-(cyclobutyl(methyl)amino)but-2-en-1-one]?
IC50 (EGFR kinase): 50 to 500 nM; IC50 (HER2 kinase): ≤ 50 nM; IC50 (BT474 cells): ≤ 50 nM

Which results are given for `COCCN(C)C/C=C/C(=O)N1CCOc2c1ccc1ncnc(Nc3ccc(Oc4ccn5ncnc5c4)c(C)c3)c21` [Example 136, (E)-1-(10-((4-([1,2,4]triazolo[1,5-a]pyridin-7-yloxy)-3-methylphenyl)amino)-2,3-dihydro-4H-[1,4]oxazino[2,3-f]quinazolin-4-yl)-4-((2-methoxyethyl)(methyl)amino)but-2-en-1-one]?
IC50 (EGFR kinase): 50 to 500 nM; IC50 (HER2 kinase): ≤ 50 nM; IC50 (BT474 cells): ≤ 50 nM

How did the IC50 (EGFR kinase) turn out when `CCN(CC)C/C=C/C(=O)N1CCOc2c1ccc1ncnc(Nc3ccc(Oc4ccn5ncnc5c4)c(C)c3)c21` [Example 137, (E)-1-(10-((4-([1,2,4]triazolo[1,5-a]pyridin-7-yloxy)-3-methylphenyl)amino)-2,3-dihydro-4H-[1,4]oxazino[2,3-f]quinazolin-4-yl)-4-(diethylamino)but-2-en-1-one] was run?
The IC50 was 500 to 5000 nM.

And the IC50 (HER2 kinase)?
The IC50 was ≤ 50 nM.

And the IC50 (BT474 cells)?
Its IC50 is ≤ 50 nM.
